Eight compounds from US20100203110A1, “Therapeutics for Cancer Using 3-Bromopyruvate and Other Selective Inhibitors of ATP Production” (The Johns Hopkins University, priority 2006, published 2010) can be followed below.

In one assay the test system is VX2 tumor glycolysis. In words: Glycolytic activity (lactic acid formation) of VX2 tumor slices. The conditions noted are these: for inhibition of VX2 tumor glycolysis (screen): 6 mM agent, 6 mM glucose, 37° C., 5 h. It counts as cell-based, rabbit. The method, then: Glycolysis was assayed by monitoring the formation of lactic acid following the addition of glucose to a medium containing VX2 tumor slices. Specifically, freshly excised tumors were washed 3 times at 4° C. in 20 ml Chance Hess Medium containing 6.2 mM KCl, 154 mM NaCl, and 11 mM NaPi, pH 7.4. Slices, 1 g each, were then prior incubated for 30 min in a Lab-Line incubator-shaker at 37° C. in 2 ml of the same medium while shaking at 50 rpm. Glucose was then added to give a final concentration of 6 mM, after which the incubation/shaking process was continued with 0.2 ml samples being removed every 30 min for up to 2 h. These samples were subjected to centrifugation at 14,000 rpm in an Eppendorf Centrifuge (Model 5415C). Then, aliquots of the supernatant, 0.01 ml, were removed from each sample, diluted with 0.03 ml of water and subjected to lactic acid determination using the kit supplied by Sigma. The latter contains, in addition to lactic dehydrogenase and NAD+, hydrazine, and glycine buffer, pH 9.2. The mixture was incubated for 30 min at 25° C. after which the absorbance due to formation of NADH was determined at 340 nm using a Gilford Model 260 spectrophotometer. To assess the elevation of the glycolytic activity of the VX2 tumor over that of liver tissue, parallel studies were always carried out in an identical manner with 1 g liver slices derived from the host liver. Finally, in those cases where agents were tested for their capacity to inhibit glycolysis, these were introduced into the system at the prior incubation step with all subsequent steps being run in parallel with those described above for the VX2 tumor or liver alone.
The screen included the following 9 compounds: 2-deoxyglucose (2DOG), 2-fluoro-2-deoxyglucose, 6-fluoro-6-deoxyglucose, 3-O-methyl glucose, 5-thio-D-glucose-6-phosphate, L-glucose, D-xylose, D-lyxose, and 3-bromopyruvic acid (3BrPA). The screen was conducted by incubating VX2 tumor slices in a medium containing 6 mM glucose with 6 mM of each of these agents at 37° C. for 5 h. The use of 6 mM glucose in the medium was used to mimic the maximal amount of glucose that might be in the blood in a real in vivo situation.
To compare the inhibitory effects of 2DOG and 3BrPA on the glycolytic capacity of the isolated liver implanted VX2 tumor, various concentrations of 2DOG and 3BrPA were prior incubated for 30 min at 37° C. with 1 g VX2 tumor slices and glycolysis was monitored.

For a further assay, the system named is AS-30D hepatoma cells. In words: Killing of AS-30D hepatoma cells (trypan blue). It counts as cell-based, rat. The settings on record: 20 mM, 12 h. Here is the method: AS-30D hepatoma cells grown in the peritoneal cavity of Sprague Dawley female rats (see Materials) were adapted to grow in tissue culture in Dulbecco's modified Eagle's medium containing 10% fetal bovine serum. Cells were maintained at 37° C. in a humidified atmosphere containing 5% CO2, and counted in a Neubauer chamber after trypan blue dye addition (cell/dye volume=1/1) by visualization under a Nikon inverted microscope.
The studies described above using the VX2 tumor model for liver cancer predict that 2DOG and 3BrPA may have the capacity to kill hepatoma cells expressing the high glycolytic/high hexokinase phenotype. […] Cell killing was assessed in these experiments by counting those cells in which trypan blue had entered.

In the case of `O=C[C@H](F)[C@@H](O)[C@H](O)[C@H](O)CO` [2-fluoro-2-deoxyglucose], the “inhibition of VX2 tumor glycolysis (screen)” value (from here on “inhibition … (screen)”) with VX2 tumor glycolysis (VX2 tumor slices) is recorded as “ineffective”.
With `O=CC[C@@H](O)[C@H](O)[C@H](O)CO` [2DOG, 2-deoxyglucose], the “inhibition … (screen)” value with VX2 tumor glycolysis (VX2 tumor slices) is listed as “ineffective”. For the same compound, in the assay with VX2 tumor glycolysis (Oryctolagus cuniculus, 0.5 h, prior incubated 30 min at 37° C. with 1 g VX2 tumor slices, read-out: half maximal inhibition of glycolysis), the IC50 is around 15 mM. The “concentration for maximal / complete inhibition of glycolysis” value with VX2 tumor glycolysis (VX2 tumor slices, 2DOG maximal (70%), 3BrPA complete) is given as around 50 mM. For the same compound, the “maximal inhibition of glycolysis” value in the assay with VX2 tumor glycolysis (at almost 50 mM, VX2 tumor slices) came to 70%. Also, the cell killing result in the assay on AS-30D hepatoma cells was “about 80%”.
With `CO[C@@H]([C@H](O)[C@H](O)CO)[C@@H](O)C=O` [3-O-methyl glucose], in the assay on VX2 tumor glycolysis (VX2 tumor slices), the “inhibition … (screen)” value was “ineffective”.
On the same count and under the same terms, in the case of `O=C[C@H](O)[C@@H](O)[C@H](O)[C@H](S)COP(=O)(O)O` [5-thio-D-glucose-6-phosphate] it was “ineffective”; in that of `O=C[C@H](O)[C@@H](O)[C@H](O)[C@H](O)CF` [6-fluoro-6-deoxyglucose], “ineffective”; in that of `O=C[C@@H](O)[C@@H](O)[C@H](O)CO` [D-lyxose], “ineffective”.
As for `O=C[C@H](O)[C@@H](O)[C@H](O)CO` [D-xylose], in the assay on VX2 tumor glycolysis (VX2 tumor slices), the “inhibition … (screen)” value was “ineffective”.
`O=C[C@@H](O)[C@H](O)[C@@H](O)[C@@H](O)CO` [L-glucose]: in the assay with VX2 tumor glycolysis (VX2 tumor slices), the “inhibition … (screen)” value is listed as “ineffective”.
